Data reported in ChEMBL document CHEMBL4680149, “Biological evaluation and chemoproteomics reveal potential antibacterial targets of a cajaninstilbene-acid analogue” (Eur J Med Chem, 2020).
Converted amounts (≈) assume the structure as drawn. The source made the active and inactive calls. The rule behind the calls is not given here.

Columns and labels:
Staphylococcus aureus [1] = test: (§1) Binding affinity to YidC in Staphylococcus aureus ATCC 25923 assessed as protein labeling at 5 uM incubated for 1 hr in presence of (E)-6-(2-fluorostyryl)-2,4-dihydroxy-3-(3-methylbut-2-enyl)benzoic acid followed by UV irradiation for 20 mins by pull down based in-gel fluorescence scanning analysis; conditions: time 80.0 min
Staphylococcus aureus [2] = test: Binding affinity to modA in methicillin resistant Staphylococcus aureus ATCC 43300 assessed as protein labeling at 5 uM incubated for 1 hr followed by UV irradiation for 20 mins by pull down based in-gel fluorescence scanning analysis; conditions: time 80.0 min
Staphylococcus aureus [3] = test: Binding affinity to CshA in methicillin resistant Staphylococcus aureus ATCC 43300 assessed as protein labeling at 5 uM incubated for 1 hr followed by UV irradiation for 20 mins by pull down based in-gel fluorescence scanning analysis; conditions: time 80.0 min
Staphylococcus aureus [4] = test: as §1, with “HsIU/ClpY” for “YidC”; conditions: time 80.0 min
Staphylococcus aureus [5] = test: Binding affinity to modA in Staphylococcus aureus ATCC 25923 assessed as protein labeling at 5 uM incubated for 1 hr followed by UV irradiation for 20 mins by pull down based in-gel fluorescence scanning analysis; conditions: time 80.0 min
Staphylococcus aureus [6] = test: Binding affinity to modA in Staphylococcus aureus ATCC 25923 assessed as protein labeling at 5 uM incubated for 1 hr in presence of (E)-6-(2-fluorostyryl)-2,4-dihydroxy-3-(3-methylbut-2-enyl)benzoic acid followed by UV irradiation for 20 mins by pull down based in-gel fluorescence scanning analysis; conditions: time 80.0 min
Staphylococcus aureus [7] = test: Binding affinity to YidC in Staphylococcus aureus ATCC 25923 assessed as protein labeling at 5 uM incubated for 1 hr followed by UV irradiation for 20 mins by pull down based in-gel fluorescence scanning analysis; conditions: time 80.0 min
Staphylococcus aureus [8] = test: Binding affinity to CshA in Staphylococcus aureus ATCC 25923 assessed as protein labeling at 5 uM incubated for 1 hr in presence of (E)-6-(2-fluorostyryl)-2,4-dihydroxy-3-(3-methylbut-2-enyl)benzoic acid followed by UV irradiation for 20 mins by pull down based in-gel fluorescence scanning analysis; conditions: time 80.0 min
Staphylococcus aureus [9] = test: Binding affinity to moaB in Staphylococcus aureus ATCC 25923 assessed as protein labeling at 5 uM incubated for 1 hr in presence of (E)-6-(2-fluorostyryl)-2,4-dihydroxy-3-(3-methylbut-2-enyl)benzoic acid followed by UV irradiation for 20 mins by pull down based in-gel fluorescence scanning analysis; conditions: time 80.0 min
Staphylococcus aureus [10] = test: Binding affinity to HsIU/ClpY in Staphylococcus aureus ATCC 25923 assessed as protein labeling at 5 uM incubated for 1 hr followed by UV irradiation for 20 mins by pull down based in-gel fluorescence scanning analysis; conditions: time 80.0 min
Staphylococcus aureus [11] = test: Binding affinity to moaB in Staphylococcus aureus ATCC 25923 assessed as protein labeling at 5 uM incubated for 1 hr followed by UV irradiation for 20 mins by pull down based in-gel fluorescence scanning analysis; conditions: time 80.0 min
Staphylococcus aureus [12] = test: Binding affinity to rpsH in Staphylococcus aureus ATCC 25923 assessed as protein labeling at 5 uM incubated for 1 hr in presence of (E)-6-(2-fluorostyryl)-2,4-dihydroxy-3-(3-methylbut-2-enyl)benzoic acid followed by UV irradiation for 20 mins by pull down based in-gel fluorescence scanning analysis; conditions: time 80.0 min
Staphylococcus aureus [13] = test: Binding affinity to PgsA in methicillin resistant Staphylococcus aureus ATCC 43300 assessed as protein labeling at 5 uM incubated for 1 hr followed by UV irradiation for 20 mins by pull down based in-gel fluorescence scanning analysis; conditions: time 80.0 min
Staphylococcus aureus [14] = test: Binding affinity to His-tagged recombinant Staphylococcus aureus PgsA expressed in Escherichia coli Rosetta DE3 at 5 uM incubated for 1 hr in presence of (E)-6-(2-fluorostyryl)-2,4-dihydroxy-3-(3-methylbut-2-enyl)benzoic acid followed by UV irradiation for 20 mins by in-gel fluorescence scanning analysis; conditions: time 80.0 min
Staphylococcus aureus [15] = test: Binding affinity to PgsA in Staphylococcus aureus ATCC 25923 assessed as protein labeling at 5 uM incubated for 1 hr in presence of (E)-6-(2-fluorostyryl)-2,4-dihydroxy-3-(3-methylbut-2-enyl)benzoic acid followed by UV irradiation for 20 mins by pull down based in-gel fluorescence scanning analysis; conditions: time 80.0 min
Staphylococcus aureus [16] = test: (§2) Binding affinity to CshA in methicillin resistant Staphylococcus aureus ATCC 43300 assessed as protein labeling at 5 uM incubated for 1 hr in presence of (E)-6-(2-fluorostyryl)-2,4-dihydroxy-3-(3-methylbut-2-enyl)benzoic acid followed by UV irradiation for 20 mins by pull down based in-gel fluorescence scanning analysis; conditions: time 80.0 min
Staphylococcus aureus [17] = test: as §2, with “modA” for “CshA”; conditions: time 80.0 min
Staphylococcus aureus [18] = test: Binding affinity to PgsA in Staphylococcus aureus ATCC 25923 assessed as protein labeling at 5 uM incubated for 1 hr followed by UV irradiation for 20 mins by pull down based in-gel fluorescence scanning analysis; conditions: time 80.0 min
Staphylococcus aureus [19] = test: as §2, with “HsIU/ClpY” for “CshA”; conditions: time 80.0 min
Staphylococcus aureus [20] = test: as §2, with “rpsH” for “CshA”; conditions: time 80.0 min
Staphylococcus aureus [21] = test: Binding affinity to moaB in methicillin resistant Staphylococcus aureus ATCC 43300 assessed as protein labeling at 5 uM incubated for 1 hr followed by UV irradiation for 20 mins by pull down based in-gel fluorescence scanning analysis; conditions: time 80.0 min
Staphylococcus aureus [22] = test: as §2, with “YidC” for “CshA”; conditions: time 80.0 min
Staphylococcus aureus [23] = test: Binding affinity to rpsH in methicillin resistant Staphylococcus aureus ATCC 43300 assessed as protein labeling at 5 uM incubated for 1 hr followed by UV irradiation for 20 mins by pull down based in-gel fluorescence scanning analysis; conditions: time 80.0 min
Staphylococcus aureus [24] = test: as §2, with “PgsA” for “CshA”; conditions: time 80.0 min
Staphylococcus aureus [25] = test: Binding affinity to CshA in Staphylococcus aureus ATCC 25923 assessed as protein labeling at 5 uM incubated for 1 hr followed by UV irradiation for 20 mins by pull down based in-gel fluorescence scanning analysis; conditions: time 80.0 min
Staphylococcus aureus [26] = test: Binding affinity to YidC in methicillin resistant Staphylococcus aureus ATCC 43300 assessed as protein labeling at 5 uM incubated for 1 hr followed by UV irradiation for 20 mins by pull down based in-gel fluorescence scanning analysis; conditions: time 80.0 min
Staphylococcus aureus [27] = test: Bacteriostatic activity against Staphylococcus aureus ATCC 25923 assessed as reduction in bacterial growth at 4 ug/ml incubated for 16 hrs by Kirby-Bauer test method; assay type: functional, organism-based; conditions: dose 4.0 µg/ml
Staphylococcus aureus [28] = test: Binding affinity to rpsH in Staphylococcus aureus ATCC 25923 assessed as protein labeling at 5 uM incubated for 1 hr followed by UV irradiation for 20 mins by pull down based in-gel fluorescence scanning analysis; conditions: time 80.0 min
Staphylococcus aureus [29] = test: Binding affinity to HsIU/ClpY in methicillin resistant Staphylococcus aureus ATCC 43300 assessed as protein labeling at 5 uM incubated for 1 hr followed by UV irradiation for 20 mins by pull down based in-gel fluorescence scanning analysis; conditions: time 80.0 min
Staphylococcus aureus [30] = test: as §2, with “moaB” for “CshA”; conditions: time 80.0 min
Staphylococcus aureus [31] = test: Antibacterial activity against Staphylococcus aureus ATCC 25923 assessed as reduction in bacterial growth incubated for 16 hrs by broth microdilution method; assay type: functional

With C#CCCC1(CCOc2ccc(/C=C/c3cc(OC)c(CC=C(C)C)c(O)c3C(=O)O)c(F)c2)N=N1 the Activity (Staphylococcus aureus [1]) was “inactive”, the Activity (Staphylococcus aureus [2]) was “Active” and the Activity (Staphylococcus aureus [3]) was “Active”. The Activity (Staphylococcus aureus [4]) was “inactive”, the Activity (Staphylococcus aureus [5]) was “Active” and the Activity (Staphylococcus aureus [6]) was “inactive”. The Activity (Staphylococcus aureus [7]) was “Active”, the Activity (Staphylococcus aureus [8]) was “inactive” and the Activity (Staphylococcus aureus [9]) was “inactive”. The Activity (Staphylococcus aureus [10]) was “Active”, the Activity (Staphylococcus aureus [11]) was “Active” and the Activity (Staphylococcus aureus [12]) was “inactive”. For the same compound, the Activity (Staphylococcus aureus [13]) was “Active”, the Activity (Staphylococcus aureus [14]) was “inactive” and the Activity (Staphylococcus aureus [15]) was “inactive”. The Activity (Staphylococcus aureus [16]) was “inactive”, the Activity (Staphylococcus aureus [17]) was “inactive” and the Activity (Staphylococcus aureus [18]) was “Active”. The Activity (Staphylococcus aureus [19]) was “inactive”, the Activity (Staphylococcus aureus [20]) was “inactive” and the Activity (Staphylococcus aureus [21]) was “Active”. The Activity (Staphylococcus aureus [22]) was “inactive”, the Activity (Staphylococcus aureus [23]) was “Active” and the Activity (Staphylococcus aureus [24]) was “inactive”. For the same compound, the Activity (Staphylococcus aureus [25]) was “Active”, the Activity (Staphylococcus aureus [26]) was “Active” and the Activity (Staphylococcus aureus [27]) was “Active”. For the same compound, the Activity (Staphylococcus aureus [28]) was “Active”, the Activity (Staphylococcus aureus [29]) was “Active” and the Activity (Staphylococcus aureus [30]) was “inactive”. For the same compound, the MIC (Staphylococcus aureus [31]) was 8 µg/mL (≈ 16.2 µM).
